Test results taken from patent publication US6767889B1, “Inhibition of angiogenesis by high molecular weight kininogen and peptide analogs thereof” (Temple University of the Commonwealth System of Higher …, priority 1998, dated 2004).
No end group written: not given here.

System: human umbilical vein endothelial cells (HUVEC)

Row | Substance | IC50
1 | GHGHGHGKHKNKGKKN-OH [SEQ ID NO:8, Gly-His-Gly-His-Gly-His-Gly-Lys-His-Lys-Asn-Lys-Gly-Lys-Lys-Asn] | 8 µM
2 | HKNKGKKNGKHNGWKT-OH [SEQ ID NO:9, His-Lys-Asn-Lys-Gly-Lys-Lys-Asn-Gly-Lys-His-Asn-Gly-Trp-Lys-Thr] | 14 µM
